Measurements reported in patent publication US20050244823A1, “Novel epitopes for celiac disease and autoimmune diseases, methods for detecting those and novel non-antigenic food compounds” (Academisch Ziekenhuis Leiden, priority 2002, published 2005).
Where no end group is shown, it is not given here. [ ]: non-standard residue; d: D form. Gln(vinylogous ester) = glutamine whose side-chain carboxamide is replaced by a vinylogous ester electrophilic trap (CO2Et)

How the values were obtained:
[1] = system: gluten specific T cell lines; assay: T cell proliferation assay with gluten specific T cell lines; type: cell-based, human; settings: T cell line from small intestinal biopsy of celiac disease patient; antigen 1-10 μg/ml; positive = Stimulation Index>3
Description: T cell clones T cell lines. Gluten specific T cell lines were generated from small intestinal biopsies of celiac disease patients as described before (van de Wal, 1998a).
T cell proliferation assays. Proliferation assays were performed in duplicate in 150 μl RPMI1640 (Gibco, Breda, NL) supplemented with 10% human serum in 96-well flat-bottomed plates (Falcon) using 10^4 T cells stimulated with 10^5 irradiated PBMCs (3000 RAD) in the presence or absence of antigen (1-10 μg/ml). After 48 hours at 37° C., cultures were pulsed with 0.5 μCi of ^3H-thymidine and harvested 18 hours thereafter as described previously (van de Wal, 1998b).

[2] = molecular target: T1, tissue transglutaminase (tTG) (Cavia cutleri, UniProt P08587); assay: Inhibition of tTG induced deamidation of a substrate gluten peptide, mass spectrometric analysis; type: biochemical
T1 construct: purchased Sigma, Zwijndrecht, NL T-5398
T1 sequence (P08587 2-690 limits assumed): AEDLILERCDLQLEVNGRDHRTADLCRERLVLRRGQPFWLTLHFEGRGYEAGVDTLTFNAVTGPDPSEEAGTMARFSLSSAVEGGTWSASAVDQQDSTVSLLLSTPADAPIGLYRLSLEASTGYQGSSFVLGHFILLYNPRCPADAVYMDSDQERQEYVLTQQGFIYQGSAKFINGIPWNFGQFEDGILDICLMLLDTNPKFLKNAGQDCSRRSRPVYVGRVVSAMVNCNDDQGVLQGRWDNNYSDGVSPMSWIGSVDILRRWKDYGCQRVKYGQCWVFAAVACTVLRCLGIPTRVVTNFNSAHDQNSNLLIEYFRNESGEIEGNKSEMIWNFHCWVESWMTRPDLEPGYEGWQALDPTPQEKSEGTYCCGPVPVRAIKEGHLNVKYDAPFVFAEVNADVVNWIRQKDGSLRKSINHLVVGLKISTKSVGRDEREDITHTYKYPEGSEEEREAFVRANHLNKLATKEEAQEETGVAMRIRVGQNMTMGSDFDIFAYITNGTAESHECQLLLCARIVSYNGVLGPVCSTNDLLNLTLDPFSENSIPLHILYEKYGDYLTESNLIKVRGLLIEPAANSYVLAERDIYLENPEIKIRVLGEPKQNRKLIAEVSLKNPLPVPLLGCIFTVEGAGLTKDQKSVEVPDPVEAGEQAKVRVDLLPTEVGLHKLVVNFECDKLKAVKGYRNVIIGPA
Description: (§1) Peptides and tTG treatment. Peptides were synthesised by standard Fmoc chemistry on a multiple peptide synthesizer (SyroII, MultiSynTech GmbH, Witten, Germany). Integrity of synthetic peptides was checked by rpHPLC and mass spectrometry. Tissue transglutaminase (tTG) treatment was performed by incubating the peptides (500 μg/ml) with the enzyme (100 μg/ml, Sigma, Zwijndrecht, NL; T-5398) at 37° C. for 4 h minimum, in 50 mM triethylamine-acetate pH 6.5, 2 mM CaCl2.
(§2) Mass spectrometry. Electrospray ionisation mass spectrometry was performed on the synthetic gluten peptides before and after tTG treatment, using a Q-TOF hybrid mass spectrometer (Micromass, Manchester, UK). Precursor ions were selected with the quadrupole window set to 3 Da and fragments were collected with high efficiency with the orthogonal time of flight mass spectrometer. The collision gas applied was argon (pressure 4×10^−5 mbar) and the collision voltage approximately 30 V. Deamidation of glutamine residues in synthetic gluten peptides was determined by mass spectrometric analysis as described previously (van de Wal, 1998a). Deamidation of a glutamine residue results in an increase of 1 Da. These conversions were assigned to particular glutamine residues by comparison of the fragmentation spectra of tTG treated and non-treated peptides.

[3] = molecular target: T1, tissue transglutaminase (tTG); assay: tTG treatment of synthetic gluten peptides, deamidation determined by mass spectrometry; type: biochemical; settings: for deamidation of glutamine residues by tTG: peptide 500 μg/ml, tTG 100 μg/ml, 37° C., 4 h minimum, pH 6.5
Description: as §1, §2

[4] = molecular target: T1, tissue transglutaminase (tTG); settings: earlier publications (van de Wal 1998a; Arentz-Hansen 2000); cited from earlier work
[5] = system: gluten specific T cell lines; settings: Arentz-Hansen 2000; Anderson 2000; cited from earlier work
[6] = tTG-treated synthetic gluten peptide, mass spectrometry

PFPQTQQPQQPFPQ [gluten-derived peptide]
stimulation of gluten specific T cell lines (proliferation) [1]: stimulate gluten specific T cell lines

QLPFPQQPQQPFPQ [gluten-derived peptide]
stimulation of gluten specific T cell lines (proliferation) [1]: stimulate gluten specific T cell lines

QQPYPQQPQQPFPQ [gluten-derived peptide]
stimulation of gluten specific T cell lines (proliferation) [1]: stimulate gluten specific T cell lines

first-generation inhibitor: biotinylated QPQLPYQ in which the carboxamide of glutamine at position 3 is replaced by a vinylogous ester electrophilic trap (CO2Et, FIG. 3) (QP[Gln(vinylogous ester)]LPYQ; also: biotinylated)
enzyme activity ([2]; 0.3 molar ratio of enzyme to inhibitor): completely abolished
inhibition of deamidation of a substrate peptide ([2]; inhibitor mixed with the enzyme in an equimolar ratio): over 50%

QQPFPQQPQQPFPQ [gluten-derived peptide]
stimulation of gluten specific T cell lines (proliferation) [1]: stimulate gluten specific T cell lines

PFPQSQQPQQPFPQ [gluten-derived peptide]
stimulation of gluten specific T cell lines (proliferation) [1]: stimulate gluten specific T cell lines

PFPQLQQPQQPFPQ [gluten-derived peptide]
stimulation of gluten specific T cell lines (proliferation) [1]: stimulate gluten specific T cell lines

QFPQTQQPQQPFPQ [gluten-derived peptide]
stimulation of gluten specific T cell lines (proliferation) [1]: stimulate gluten specific T cell lines

PFSQQQQLVL
deamidation of glutamine residues by tTG [3]: all Q-residues are deamidated

PFPQPQQPQQPFPQ [gluten-derived peptide]
stimulation of gluten specific T cell lines (proliferation) [1]: stimulate gluten specific T cell lines

PSGQ208GSFQPSQQ216NPQA
deamidation of glutamine residues by tTG / tTG substrate [4]: Q208 and Q216 are deamidated by tTG, whereas positions Q212, Q215, and Q219 are not

LQQPQQ6PQFQPQQQF [Peptide 20]
Rules QP ↓ (share of Q residues following the rule: Q preceding P not deamidated) [3, 6]: 100%
Rules QXP ↑ (share of Q residues following the rule: P at Q+2 allows deamidation) [3, 6]: 50%
Rules QXXF ↑ (share of Q residues following the rule: bulky/hydrophobic residue at Q+3 allows deamidation) [3, 6]: 50%^
Rules QXXP ↓ (share of Q residues following the rule: P at Q+3 inhibits deamidation) [3, 6]: 100%

PFSQQQQPV
deamidation of glutamine residues by tTG [3]: specifically and efficiently deamidated

QPQLPYPQ
deamidation of glutamine residues by tTG / tTG substrate [4]: known to be a tTG substrate

QLQPFPQPQLPY
T cell stimulatory activity in celiac disease patients [5]: immunodominant

PSGQ208GSFQPSQQ216N
deamidation of glutamine residues by tTG [3]: only the Q208 is deamidated

9: gluten peptide FPQHCNYQ[Q]QPQTFPQPF; [Q] = image character, presumably deamidated Q [Peptide 9]
Rules QP ↓ (share of Q residues following the rule: Q preceding P not deamidated) [3, 6]: 100%
Rules QXP ↑ (share of Q residues following the rule: P at Q+2 allows deamidation) [3, 6]: 100%
Rules QXXP ↓ (share of Q residues following the rule: P at Q+3 inhibits deamidation) [3, 6]: 100%
